One data set concerns A375 cells. The data set is described as follows: Cell viability, WST-1 reagent, A375 cells grown in two-dimension. Type of data set: cell-based. The conditions noted are these: WST-1, 72 h post treatment. The protocol:
Compound 1 (PRT7000467), Compound 2 (PRT7041128), and Compound 3 (PRT7081582) are not toxic to cells grown in two-dimension. A375 cells were cultured with RPMI and 10% FBS. The cells were treated with different concentrations of Compound 1 (PRT7000467) and Compound 2 (PRT7041128), then the viability of the cells was determined seventy-two hours post treatment using WST-1 reagent (Roche) (FIG. 1B)
For orientation: Tetrazolium dyes change colour on reduction, which living cells bring about.

In another data set the test system is A375 melanoma cells. The data set is described as follows: Transwell cell migration assay, A375 melanoma cells. Type of data set: cell-based. The note with it: Homo sapiens, A-375; A375 melanoma cells, Transwell 5 μm pore, 24 h, Example 3 (FIGS. 1A, 1E); read-out: IC50 in the migration assay. The protocol:
A375 melanoma cells (CRL-1619, American Type Culture Collection (“ATCC”), Manassas Va., USA)) grown in RPMI medium supplement with 10% FBS were starved for 24 hours in FBS free medium. After starvation of 24 hr, 5×10^4 cells in FBS free medium were placed in the upper chamber of 24-well, Transwell apparatus (CORNING TRANS WELL® polycarbonate membrane inserts, 5 μm pore size) with solvent (DMSO/PEG400) or different concentrations of Compound 1 (PRT7000467), Compound 2 (PRT7041128), or Compound 3 (PRT7081582). Medium containing FBS and compounds was added to the bottom chamber. Twenty-four hours later the melanoma cells from the upper chamber were removed with a cotton swab. Cells that migrated to the lower side of the membrane were stained with Calcein-AM (Sigma) and images were taken with fluorescence microscope. The number of migrating cells was quantified by ImageJ software and the IC50 values were calculated using Prism software (Graphpad) (FIG. 1A,1E).
A375 (melanoma) (CRL-1619, ATCC, Manassas, Va., USA), A431 (melanoma) (CRL-2592, ATCC, Manassas, Va., USA), A2058 (melanoma) (CRL-11147, ATCC, Manassas, Va., USA), MDA-MB-231 (breast) (HTB-26, ATCC, Manassas, Va., USA), LS175T (colon) (ATCC, Manassas, Va., USA), HT29 (colon) (HTB-38, ATCC, Manassas, Va., USA), PC3 (prostate) (CRL-1435, ATCC, Manassas, Va., USA), Panc03.27 (pancreatic) (ATCC, Manassas, Va., USA), 4T1 (breast-mouse) (CRL-2539, ATCC, Manassas. Va., USA), D122 (lung-mouse) (the Weizmann Institute of Science), D122-luc (lung-mouse) (the Weizmann Institute of Science), and B16 F10.9 (melanoma-mouse) cells (Caliper Life Sciences, Hopkinton Mass.), were grown in RPMI medium supplemented with 10% FBS. HUVEC cells were grown in Endothelial Cell Growth Medium 2 and THP1 cells were grown in RPMI medium supplemented with 10% FBS, 2 mM L-Glutamine, 1.5 g/L sodium bicarbonate, 10 mM Hepes, 1 mM sodium pyruvate, 4.5 g/L glucose and 0.05 mM 2-mercaptoethanol. The cells were starved for 24 hours in medium without FBS. At the end of the starvation, 5×10^4 cells in medium without FBS were placed in the upper chamber of 24-well, Transwell apparatus (CORNING TRANSWELL® polycarbonate membrane inserts, 5 μm pore size for […] and THP1 cells and 8 μm pore size for all the other cells) with solvent (DMSO/PEG400) or different concentrations of compound 1 (PRT7000467). Medium with FBS and compounds was added to the bottom chamber. Twenty-four hours later the cells from the upper chamber were removed with a cotton swab. Cells that migrated to the lower side of the membrane were stained with Calcein-AM (Sigma) and images were taken with a fluorescence microscope. The number of migrating cells was quantified by ImageJ software and the IC50 values were calculated using Prism software (Graphpad).

With `O=C(Nc1ccc(S(=O)(=O)Nc2ncccn2)cc1)/C(=C\c1cccs1)NC(=O)c1cccs1` [Compound 2], in the data set on A375 cells, the “toxicity to cells grown in two-dimension” value is on record as “not toxic”. The IC50 in the data set on A375 melanoma cells came to 9.2 µM.

The values are drawn from US20110130374A1, “Small Pyrimidine Derivatives and Methods of Use Thereof” (BIOSEARCH(2007) LTD., priority 2009, published 2011).
